The results in this text go back to patent US5354862A, “Preparation and the use of halopropargylated cyclic quaternary ammonium compounds as antimicrobial agents” (Rohm and Haas Company, priority 1993, dated 1994).

Read-outs that look alike come from different tables or passages of the source. Bounds are passed on as bounds.

Test in all cases: Broth two-fold serial dilution MIC test
The test system of one experiment is Escherichia coli. Format: cell-based, Escherichia coli (ATCC 11229). Particulars: Table 2, Ecol. From the text: (§1) A minimum inhibitory concentration (MIC) value is obtained using a broth, two-fold serial dilution test performed as follows: A stock solution or dispersion of the test compound, typically at a concentration of 1%, is made in a 5:3:2 solvent solution of acetone. methanol, and water. A volume of the stock solution is dispensed into culture media to give an initial starting test concentration of 500 ppm compound.
(§2) When the test is ready to be done, each vessel in the dilution series, except the first vessel, contains an equal volume of compound free broth. The first vessel contains twice the volume of broth with the starting concentration of test compound. One half of the broth from the first vessel is transferred to the second vessel- After being mixed, one half the resulting volume is removed from the second vessel and transferred to the third vessel. The entire cycle is repeated sufficiently to give a series of concentrations amounting to 500, 250, 125, 63, 31, 16, 8, and 4, 2, 1, 0.5, 0.25 ppm respectively.
(§3) Each vessel is then inoculated with a cell suspension of the appropriate test organism. Bacteria are grown in broth, fungi on agar slants for a time and at a temperature appropriate to the species being tested, and algae are a mixture of green algae and blue-green bacteria grown in a nutrient media. At the end of the growth period, in the case of bacteria, the broth is vortexed to disperse the cells.
(§4) In the case of fungi, the spores are harvested by pipetting water onto the slant and dislodging the spores with a sterile loop. The cell/spore suspension is standardized by controlling incubation time, temperature, and the volume of the diluent. The suspension is then used to inoculate the vessels containing the broth compound.
(§5) The vessels are then incubated at the appropriate temperature. After the incubation, the vessels are examined for growth/no growth. The minimum inhibitory concentration (MIC) is defined as the lowest concentration of compound that results in complete inhibition of growth of the test organism.

The subject of the next experiment is Staphylococcus aureus. Format: cell-based, Staphylococcus aureus (ATCC 6538). The conditions noted are these: Table 2, Saur.
From the text: as §1, §2, §3, §4, §5
2. Staphylococcus aureus

The next experiment concerns Pseudomonas aeruginosa. The experiment is classed as cell-based, Pseudomonas aeruginosa (ATCC 15442). The conditions noted are these: Table 2, Psae.
From the text: as §1, §2, §3, §4, §5
1. Pseudomonas aeruginosa

Another experiment has as its system Aspergillus niger. Format: cell-based, Aspergillus niger (ATCC 6275). Particulars: Table 2, Anig, TSB media.
From the text: as §1, §2, §3, §4, §5
4. Aspergillus niger 6275 Anig

Where [1] appears, read: Escherichia coli, M9G media, read-out: MIC.
Where [2] appears, read: Escherichia coli, TSB media, read-out: MIC.
Where [3] appears, read: Staphylococcus aureus, M9G media, read-out: MIC.
Setting [4] is: Staphylococcus aureus, TSB media, read-out: MIC.
The mark [5] stands for this setting: Pseudomonas aeruginosa, M9G media, read-out: MIC.
[6] abbreviates: Pseudomonas aeruginosa, TSB media, read-out: MIC.
[7] abbreviates: Aspergillus niger, read-out: MIC.

With `CCCC[N+]1(CC#CI)CCOCC1` [Compound 93, 4-n-butyl-4-(3-iodopropargyl)-morpholinium methanesulfonate], the MIC in the experiment with Escherichia coli (setting [1]) was 125 mg/L; with Escherichia coli (setting [2]) it was 125 mg/L; in the experiment on Staphylococcus aureus (setting [3]), over 500 mg/L; with Staphylococcus aureus (setting [4]) it was over 500 mg/L; in the experiment with Pseudomonas aeruginosa (setting [5]), over 500 mg/L; in the experiment on Pseudomonas aeruginosa (setting [6]) it was over 500 mg/L. Further, in the experiment on Aspergillus niger (setting [7]), the MIC was found to be 500 mg/L.

Consider `CCCCCCCCCCCCCCC[N+]1(CC#CI)CCOCC1` [Compound 88, 4-pentadecyl-4-(3-iodopropargyl)-morpholinium methanesulfonate], for which the MIC in the experiment with Escherichia coli (setting [1]) was found to be 2 mg/L; in the experiment on Escherichia coli (setting [2]) it was 4 mg/L; in the experiment with Staphylococcus aureus (setting [3]), 0.25 mg/L; in the experiment with Staphylococcus aureus (setting [4]) it was 0.25 mg/L; with Pseudomonas aeruginosa (setting [5]), 8 mg/L; in the experiment with Pseudomonas aeruginosa (setting [6]), 32 mg/L. The MIC with Aspergillus niger (setting [7]) came out at 4 mg/L.

Turning to `CCCCCCCCCCCCCC[N+]1(CC#CI)CCCC1` [Compound 39, 1-tetradecyl-1-(3-iodopropargyl)-pyrrolidinium methanesulfonate], the MIC is recorded as 1 ppm in the experiment on Escherichia coli (M9G media); 2 ppm with Escherichia coli (TSB media); under 0.25 ppm against Staphylococcus aureus (M9G media); under 0.25 ppm in the experiment with Staphylococcus aureus (TSB media); 63 ppm with Pseudomonas aeruginosa (M9G media); 63 ppm against Pseudomonas aeruginosa (TSB media). The same compound returned an MIC in the experiment with Aspergillus niger of 0.5 ppm.

As for `CCCC[N+]1(CC#CI)CCCC1` [Compound 77, 1-n-butyl-1-(3-iodopropargyl)-pyrrolidinium bromide], the MIC is recorded as 64 ppm with Escherichia coli (M9G media); 64 ppm with Escherichia coli (TSB media); 250 ppm against Staphylococcus aureus (M9G media); 250 ppm with Staphylococcus aureus (TSB media); over 500 ppm against Pseudomonas aeruginosa (M9G media); over 500 ppm with Pseudomonas aeruginosa (TSB media). Besides, the MIC in the experiment on Aspergillus niger is on record as over 500 ppm.

Consider `CCCCCCCCCCCCCCC[N+]1(CC#CI)CCCC1` [Compound 38, 1-pentadecyl-1-(3-iodopropargyl)-pyrrolidinium methanesulfonate], for which the MIC against Escherichia coli (M9G media) is recorded as 1 ppm; with Escherichia coli (TSB media) it was 8 ppm; in the experiment on Staphylococcus aureus (M9G media), under 0.25 ppm; against Staphylococcus aureus (TSB media), under 0.25 ppm; against Pseudomonas aeruginosa (M9G media), 32 ppm; against Pseudomonas aeruginosa (TSB media), 63 ppm. Moreover, in the experiment on Aspergillus niger, the MIC stood at 0.5 ppm.

`CCCCCCCCCCCCOC(=O)C[N+]1(CC#CI)CCOCC1` [Compound 68, 4-(dodecyloxycarbonyl)methyl-4-(3-iodopropargyl)-morpholinium 4-methylbenzenesulfonate]: the MIC in the experiment on Escherichia coli (setting [1]) amounted to 2 mg/L; with Escherichia coli (setting [2]) it was 8 mg/L; in the experiment on Staphylococcus aureus (setting [3]) it was 0.5 mg/L; in the experiment on Staphylococcus aureus (setting [4]) it was 2 mg/L; with Pseudomonas aeruginosa (setting [5]), 32 mg/L; in the experiment with Pseudomonas aeruginosa (setting [6]) it was 64 mg/L. The MIC in the experiment with Aspergillus niger (setting [7]) was found to be 16 mg/L.

Turning to `OCCCCCCCCCCCC[N+]1(CC#CI)CCCCC1` [Compound 20, 1-(12-hydroxydodecyl)-1-(3-iodopropargyl)-piperidinium 4-methylbenzenesulfonate], the MIC was 250 mg/L with Escherichia coli (setting [2]); 8 mg/L in the experiment on Staphylococcus aureus (setting [3]); 63 mg/L in the experiment on Staphylococcus aureus (setting [4]); over 250 mg/L in the experiment on Pseudomonas aeruginosa (setting [5]); over 250 mg/L in the experiment with Pseudomonas aeruginosa (setting [6]); 125 mg/L in the experiment with Aspergillus niger (setting [7]).

Regarding `CCCCCCCCCCCCOC(=O)C[N+]1(CC#CI)CCCC1` [Compound 75, 1-(dodecyloxycarbonyl)methyl-1-(3-iodopropargyl)-pyrrolidinium methanesulfonate], the MIC with Escherichia coli (M9G media) was 2 ppm; in the experiment on Escherichia coli (TSB media), 8 ppm; against Staphylococcus aureus (M9G media) it was 0.25 ppm; with Staphylococcus aureus (TSB media), 2 ppm; against Pseudomonas aeruginosa (M9G media), 32 ppm; in the experiment on Pseudomonas aeruginosa (TSB media), 125 ppm. Further, in the experiment on Aspergillus niger, the MIC was found to be 8 ppm.

Regarding `CCCCCCCCCCCCCC[N+]1(CC#CI)C=NCC1.O=S(=O)([O-])c1ccccc1` (centres unmarked) [Compound 56, 1-(tetradecyl)-1-(3-iodopropargyl)-imidazolinium benzenesulfonate], the MIC in the experiment with Escherichia coli (M9G media) is recorded as under 0.25 ppm; in the experiment on Escherichia coli (TSB media), under 0.25 ppm; in the experiment with Staphylococcus aureus (M9G media), under 0.25 ppm; against Staphylococcus aureus (TSB media), under 0.25 ppm; in the experiment on Pseudomonas aeruginosa (M9G media), 8 ppm; against Pseudomonas aeruginosa (TSB media), 63 ppm. In the experiment with Aspergillus niger, this compound displayed an MIC of under 0.25 ppm.
